According to patent US4818753A, “Synthesis and method of use for 2, 4 diaminoquinazoline” (SRI International, priority 1987, dated 1989):
Converted amounts (≈) assume the structure as drawn. Like-named read-outs stand apart in the source and are kept apart here.

Assays:
Format in all cases: cell-based
[1] = system: Microsporum gypseum (14683); experiment: Broth dilution assay, F12; details: Nannizzia gypsea
Description: (§1) Both broth dilution and agar dilution assays were used to assess the antifungal activity of the compounds of the invention. The cultures were maintained in Sabouraud dextrose broth (SDB) and diluted with […]. 2.5 l of SDB was prepared and distributed into sterile vessels as follows: 49 ml into 1 vessel, 27 ml into 3 vessels, 45 ml into 2 vessels.
(§2) Five mg/ml concentration of each compound was prepared using DMSO as the solvent; warming and sonication were necessary to dissolve each compound completely. The compounds were then diluted in SDB according to the following protocol:
(§3) 5. 1 ug/ml--5 ml (3)+45 ml SDB
(§4) The compound at each concentration in SDB was then dispensed into 6 tubes each containing 4 ml […]. Controls (without any compound) were also prepared to insure that the solvent itself was not fungicidal or fungistatic.
(§5) Cultures were grown in SDB for 24 h at 30° C. C. albicans and C. neoformans were diluted 1:10 in SDB before inoculation. Inoculation volume for yeasts was 2 drops of diluted cells per tube. The fungal cultures were homogenized before inoculation. The same volume was added, but without dilution. All tubes were incubated at room temperature on a rotating wheel. After 16 h of incubation at room temperature, the fungistatic assay was set up on agar plates. […] Yeasts were inoculated onto SDA (the corresponding agar) plates and fungi onto mycosel agar plates. These plates were then incubated at room temperature.

[2] = system: Cryptococcus neoformans (13690); experiment: Broth dilution assay, F3
Description: as §1, §2, §3, §4, §5

[3] = system: Epidermophyton floccosum (15693); experiment: Broth dilution assay, F4
Description: as §1, §2, §3, §4, §5

Ca. krusei MY1020 = experiment: Agar dilution assay; details: Pichia kudriavzevii, MY1020, 48 h, read-out: Minimum inhibitory concentration
From the text: (§6) For the agar dilution assay, the test panel consisted of 18 yeastlike and 3 Filamentus fungii. Four media were used. These were yeast nitrogen base dextrose (0.5% agar) (YNBDA); pH 5.5; YNBDA with pH adjusted to pH 7.5; and micrological agar (MA), pH 7.0; and Sabouraud dextrose agar, pH 5.7. The media was manufactured by Difco (Detroit, MI) and prepared according to the manufacturer's instructions.
(§7) The test compounds were solubilized in 10% aqueous DMSO; the control drug, Nystatin, was solublized in 10% aqueous DMF. The drugs were serially diluted twofold in sterile water to yield concentrations of 1.28 mg/ml to […]. One ml of diluted drug was added to 9 ml of cooled (50° C.) molten agar in plastic petri plates to yield final drug concentrations in the agar ranging from 128 to 0.063 ug/ml. Appropriate solvent and media control plates were prepared as well, and all plates stored in the dark at 4° C. overnight. The yeast cultures, maintained in yeast maltose (YM; Difco), were transferred to fresh YM medium and incubating overnight at 37° C. with shaking at 250 rpm. After incubation each culture was diluted in sterile saline to yield concentrations of 3×10^5 to 3×10^6 cfu/ml. Isolates of aspergillis and penicillium were made on potato dextrose agar slants, and spore suspensions were made following vigorous shaking with sterile glass beads. The spore preparation were used as inocula for these fungi.
(§8) Each prepared place was inoculated with the 21-member panel using a Denleigh multipoint inoculator (Sussex, England). The inoculator delivers approximately 1 ul to the agar surface, resulting in inoculation of from 3×10^2 to 3×10^3 cfu. The plates were incubated at 28° C. for 48 h, and the minimum inhibitory concentrations (MIC) of each drug were recorded as the lower concentration of the drug permitting no growth or growth of less than 3 cfu/spot.

Ca. stellatoidea MY1017 = experiment: Agar dilution assay; details: Candida albicans, MY1017, 48 h, read-out: Minimum inhibitory concentration
From the text: as §6, §7, §8

[4] = system: Aspergillus fumigatus MY4839; experiment: Agar dilution assay; details: MY4839, 48 h
From the text: as §6, §7, §8

Candida albicans MY1058 = experiment: Agar dilution assay; details: MY1058, 48 h
From the text: as §6, §7, §8

Ca. rugosa MY1022 = experiment: Agar dilution assay; details: Diutina rugosa, MY1022, 48 h, read-out: Minimum inhibitory concentration
From the text: as §6, §7, §8

Ca. albicans MY1055 = experiment: Agar dilution assay; details: Candida albicans, MY1055, 48 h, read-out: Minimum inhibitory concentration
From the text: as §6, §7, §8

Candida albicans (10231) = experiment: Broth dilution assay, F1
Description: as §1, §2, §3, §4, §5

Candida = experiment: Growth of Candida cultures with compound and/or SMX (FIG. 1)
[5] = MA pH 7.0, read-out: Minimum inhibitory concentration
[6] = SDA pH 5.7, read-out: Minimum inhibitory concentration
[7] = YNBDA pH 5.5, read-out: Minimum inhibitory concentration
[8] = YNBDA pH 7.5, read-out: Minimum inhibitory concentration

SMILES: CCCCCCCCc1ccc2nc(N)nc(N)c2c1C [2,4-Diamino-5-methyl-6-n-octylquinazoline]
- MFC ([1]; Table 2, Sabouraud Dextrose Broth pH 5.5, read-out: C Fungicidal): 100 µg/mL (≈ 349 µM)
- MIC ([1]; Table 2, Sabouraud Dextrose Broth pH 5.5, read-out: S Fungistatic): 30 µg/mL (≈ 105 µM)
- MFC ([2]; Table 2, F3, Sabouraud Dextrose Broth pH 5.5, read-out: C Fungicidal): 3 µg/mL (≈ 10.5 µM)
- MIC ([2]; Table 2, F3, Sabouraud Dextrose Broth pH 5.5, read-out: S Fungistatic): 3 µg/mL (≈ 10.5 µM)
- MFC ([3]; Table 2, F4, Sabouraud Dextrose Broth pH 5.5, read-out: C Fungicidal): 30 µg/mL (≈ 105 µM)
- MIC ([3]; Table 2, F4, Sabouraud Dextrose Broth pH 5.5, read-out: S Fungistatic): 1 µg/mL (≈ 3.49 µM)
- MIC (Ca. krusei MY1020; MA pH 7.0): 8 µg/mL (≈ 27.9 µM)
- MIC (Ca. krusei MY1020; SDA pH 5.7): > 128 µg/mL
- MIC (Ca. krusei MY1020; YNBDA pH 5.5): > 128 µg/mL
- MIC (Ca. krusei MY1020; YNBDA pH 7.5): 8 µg/mL (≈ 27.9 µM)
- MIC (Ca. stellatoidea MY1017; MA pH 7.0): 16 µg/mL (≈ 55.9 µM)
- MIC (Ca. stellatoidea MY1017; SDA pH 5.7): 128 µg/mL (≈ 447 µM)
- MIC (Ca. stellatoidea MY1017; YNBDA pH 5.5): > 128 µg/mL
- MIC (Ca. stellatoidea MY1017; YNBDA pH 7.5): 16 µg/mL (≈ 55.9 µM)
- MIC [4, 5]: 64 µg/mL (≈ 223 µM)
- MIC [4, 6]: > 128 µg/mL
- MIC [4, 7]: > 128 µg/mL
- MIC [4, 8]: 32 µg/mL (≈ 112 µM)
- MIC (Candida albicans MY1058; [5]): 16 µg/mL (≈ 55.9 µM)
- MIC (Candida albicans MY1058; [6]): > 128 µg/mL
- MIC (Candida albicans MY1058; [7]): > 128 µg/mL
- MIC (Candida albicans MY1058; [8]): 32 µg/mL (≈ 112 µM)
- MIC (Ca. rugosa MY1022; pH 5.5, YNBDA pH 5.5): > 128 µg/mL
- MIC (Ca. rugosa MY1022; pH 7, MA pH 7.0): 64 µg/mL (≈ 223 µM)
- MIC (Ca. rugosa MY1022; pH 7.5, YNBDA pH 7.5): 32 µg/mL (≈ 112 µM)
- MIC (Ca. albicans MY1055; MA pH 7.0): 32 µg/mL (≈ 112 µM)
- MIC (Ca. albicans MY1055; SDA pH 5.7): > 128 µg/mL
- MIC (Ca. albicans MY1055; YNBDA pH 5.5): > 128 µg/mL
- MIC (Ca. albicans MY1055; YNBDA pH 7.5): 32 µg/mL (≈ 112 µM)
- MFC (Candida albicans (10231); Table 2, F1, Sabouraud Dextrose Broth pH 5.5, read-out: C Fungicidal): 100 µg/mL (≈ 349 µM)
- MIC (Candida albicans (10231); Table 2, F1, Sabouraud Dextrose Broth pH 5.5, read-out: S Fungistatic): 10 µg/mL (≈ 34.9 µM)
- cfu/ml after 9 h (Candida; 10 ug compound + 100 ug SMX, after 9 h): 10^2 cfu/ml
- cfu/ml after 36 h (Candida; 10 ug compound + 100 ug SMX): zero
- cfu/ml after 36 h (Candida; 10 ug of compound alone): 10^4 cfu/ml
- cfus after 9 h (Candida; 100 ug of each compound (with SMX), after 9 h): no cfus
- synergistic activity with sulfa drug (Candida; with sulfa drug (SMX in FIG. 1)): synergistic activity
